From ChEMBL document CHEMBL1909294, “Translating clinical findings into knowledge in drug safety evaluation--drug induced liver injury prediction system (DILIps)” (PLoS Comput Biol, 2011)
Where a SMILES comes first, the peptide text is derived from it. Bridges are numbered along the chain shown (N, C = ends). [ ]: non-standard residue; d: D form. The star is where a group is joined. Ileψ(thiazoline)Cys = CC[C@H](C)[C@H](N)C1=N[C@H](C(=O)*)CS1; dOrn = NCCC[C@@H](N)C(=O)O

Legend:
Hepatotoxicity [1] = tested on: Hepatotoxicity;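 as to HepSE cholecystitis: Cholecystitis-related hepatic side effect score drawn from the DILIps (drug-induced liver injury prediction) training data set; call rule not given here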;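 as to HepSE cholelithiasis: hepatic side effect score for cholelithiasis, drawn from the DILIps training data for predicting drug-induced liver injury; call rule not given here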;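 as to HepSE cirrhosis: cirrhosis hepatic side effect score taken from the DILIps (drug-induced liver injury prediction) training set; call rule not given here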;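 as to HepSE elevated liver function tests: hepatic side effect score for raised liver function tests, as recorded in the DILIps training set used for predicting drug-induced liver injury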;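 as to HepSE hepatitis: Hepatitis-related hepatic side effect score taken from the training data of DILIps, a prediction system for drug-induced liver injury; call rule not given here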;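 as to HepSE liver function tests abnormal: hepatic side effect score taken from the DILIps (drug-induced liver injury prediction system) training data, here covering abnormal liver function test findings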
Hepatotoxicity [2] = tested on: Hepatotoxicity; remark: listed apart in the source;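 as to HepSE cholecystitis: Cholecystitis-related hepatic side effect score drawn from the DILIps (drug-induced liver injury prediction) training data set; call rule not given here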;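 as to HepSE cholelithiasis: hepatic side effect score for cholelithiasis, drawn from the DILIps training data for predicting drug-induced liver injury; call rule not given here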;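 as to HepSE cirrhosis: cirrhosis hepatic side effect score taken from the DILIps (drug-induced liver injury prediction) training set; call rule not given here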;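 as to HepSE elevated liver function tests: hepatic side effect score for raised liver function tests, as recorded in the DILIps training set used for predicting drug-induced liver injury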;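 as to HepSE hepatitis: Hepatitis-related hepatic side effect score taken from the training data of DILIps, a prediction system for drug-induced liver injury; call rule not given here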;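 as to HepSE liver function tests abnormal: hepatic side effect score taken from the DILIps (drug-induced liver injury prediction system) training data, here covering abnormal liver function test findings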
Hepatotoxicity [3] = tested on: Hepatotoxicity; remark: listed apart in the source;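 as to HepSE cholecystitis: Cholecystitis-related hepatic side effect score drawn from the DILIps (drug-induced liver injury prediction) training data set; call rule not given here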;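 as to HepSE cholelithiasis: hepatic side effect score for cholelithiasis, drawn from the DILIps training data for predicting drug-induced liver injury; call rule not given here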;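 as to HepSE cirrhosis: cirrhosis hepatic side effect score taken from the DILIps (drug-induced liver injury prediction) training set; call rule not given here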;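 as to HepSE hepatitis: Hepatitis-related hepatic side effect score taken from the training data of DILIps, a prediction system for drug-induced liver injury; call rule not given here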;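 as to HepSE liver function tests abnormal: hepatic side effect score taken from the DILIps (drug-induced liver injury prediction system) training data, here covering abnormal liver function test findings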
Hepatotoxicity [4] = tested on: Hepatotoxicity; remark: listed apart in the source;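 as to HepSE cholecystitis: Cholecystitis-related hepatic side effect score drawn from the DILIps (drug-induced liver injury prediction) training data set; call rule not given here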;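 as to HepSE cholelithiasis: hepatic side effect score for cholelithiasis, drawn from the DILIps training data for predicting drug-induced liver injury; call rule not given here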;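 as to HepSE cirrhosis: cirrhosis hepatic side effect score taken from the DILIps (drug-induced liver injury prediction) training set; call rule not given here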;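 as to HepSE hepatitis: Hepatitis-related hepatic side effect score taken from the training data of DILIps, a prediction system for drug-induced liver injury; call rule not given here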;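 as to HepSE liver function tests abnormal: hepatic side effect score taken from the DILIps (drug-induced liver injury prediction system) training data, here covering abnormal liver function test findings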
Hepatotoxicity [5] = tested on: Hepatotoxicity; remark: listed apart in the source
Hepatotoxicity [6] = tested on: Hepatotoxicity; remark: listed apart in the source
Hepatotoxicity [7] = tested on: Hepatotoxicity; remark: listed apart in the source
Hepatotoxicity [8] = tested on: Hepatotoxicity; remark: listed apart in the source
Hepatotoxicity [9] = tested on: Hepatotoxicity; remark: listed apart in the source
Hepatotoxicity [10] = tested on: Hepatotoxicity; remark: listed apart in the source
Hepatotoxicity [11] = tested on: Hepatotoxicity; remark: listed apart in the source
Hepatotoxicity [12] = tested on: Hepatotoxicity; remark: listed apart in the source
Hepatotoxicity [13] = tested on: Hepatotoxicity; remark: listed apart in the source
Hepatotoxicity [14] = tested on: Hepatotoxicity; remark: listed apart in the source

Molecule	HepSE_cirrhosis (Hepatotoxicity [1])	HepSE_liver function tests abnormal (Hepatotoxicity [2])	HepSE_cholelithiasis (Hepatotoxicity [3])	HepSE_hepatitis (Hepatotoxicity [4])	HepSE_bilirubinemia (Hepatotoxicity [5])	HepSE_liver fatty (Hepatotoxicity [6])	HepSE_cholecystitis (Hepatotoxicity [7])	HepSE_hepatic necrosis (Hepatotoxicity [8])	HepSE_elevated liver function tests (Hepatotoxicity [9])	HepSE_jaundice (Hepatotoxicity [10])	HepSE_Combined Scores (Hepatotoxicity [11])	HepSE_hepatic failure (Hepatotoxicity [12])	HepSE_hepatomegaly (Hepatotoxicity [13])	HepSE_liver disease (Hepatotoxicity [14])	also measured
CC(C)(C)NC[C@H](O)COc1nsnc1N1CCOCC1 [TIMOLOL]	0	0	0	0	0	0	0	0	0	0	1	0	1	0	–
C[C@]12C=CC(=O)C=C1CC[C@@H]1[C@@H]2C(=O)C[C@@]2(C)[C@H]1CC[C@]2(O)C(=O)CO [PREDNISONE]	0	0	0	0	0	0	0	0	0	0	0	0	0	0	–
O=P1(NCCCl)OCCCN1CCCl (configuration not stated) [IFOSFAMIDE]	0	0	0	0	0	0	0	0	0	0	0	0	0	0	–
CC[C@H](C)[C@H](N)C1=N[C@H](C(=O)N[C@@H](CC(C)C)C(=O)N[C@H](CCC(=O)O)C(=O)N[C@H](C(=O)N[C@H]2CCCCNC(=O)[C@H](CC(N)=O)NC(=O)[C@@H](CC(=O)O)NC(=O)[C@H](Cc3cnc[nH]3)NC(=O)[C@@H](Cc3ccccc3)NC(=O)[C@H]([C@@H](C)CC)NC(=O)[C@@H](CCCN)NC2=O)[C@@H](C)CC)CS1 [BACITRACIN] ({Ileψ(thiazoline)Cys}-L[dE]IK[dOrn]I[dF]H[dD]N; lactam 4-C)	0	0	0	0	0	0	0	0	0	0	0	0	0	0	–
CCCC(C)(COC(N)=O)COC(N)=O [MEPROBAMATE]	0	0	0	0	0	0	0	0	0	0	0	0	0	0	–
CC(C(=O)O)c1cccc(Oc2ccccc2)c1 (configuration not stated) [FENOPROFEN]	0	0	0	1	0	0	0	0	0	1	2	0	0	0	–
COLESEVELAM HYDROCHLORIDE	0	0	0	0	0	0	0	0	0	0	0	0	0	0	–
CS(=O)(=O)OCCCCOS(C)(=O)=O [BUSULFAN]	0	0	0	1	1	0	0	0	0	1	4	0	1	0	–
CCc1nn(CCCN2CCN(c3cccc(Cl)c3)CC2)c(=O)n1CCOc1ccccc1 [NEFAZODONE]	0	1	0	1	0	0	0	1	0	0	3	0	0	0	–
CC#CCC(C)[C@H](O)/C=C/[C@@H]1[C@H]2C/C(=C/CCCC(=O)O)C[C@H]2C[C@H]1O (some centres not stated) [ILOPROST]	0	0	0	0	0	0	0	0	0	0	0	0	0	0	–
NNc1nncc2ccccc12 [HYDRALAZINE]	–	–	–	–	–	–	–	–	–	–	–	–	–	–	HepSE_cirrhosis (Hepatotoxicity [1]; Liver): 0; HepSE_liver function tests abnormal (Hepatotoxicity [2]; Liver): 0; HepSE_cholelithiasis (Hepatotoxicity [3]; Liver): 0; HepSE_hepatitis (Hepatotoxicity [4]; Liver): 1; HepSE_bilirubinemia (Hepatotoxicity [5]; Liver): 0; HepSE_liver fatty (Hepatotoxicity [6]; Liver): 0; HepSE_cholecystitis (Hepatotoxicity [7]; Liver): 0; HepSE_hepatic necrosis (Hepatotoxicity [8]; Liver): 0; HepSE_elevated liver function tests (Hepatotoxicity [9]; Liver): 0; HepSE_jaundice (Hepatotoxicity [10]; Liver): 0; HepSE_Combined Scores (Hepatotoxicity [11]; Liver): 1; HepSE_hepatic failure (Hepatotoxicity [12]; Liver): 0; HepSE_hepatomegaly (Hepatotoxicity [13]; Liver): 0; HepSE_liver disease (Hepatotoxicity [14]; Liver): 0
CCOC(=O)C1=C(COCCN)NC(C)=C(C(=O)OC)C1c1ccccc1Cl (configuration not stated) [AMLODIPINE]	0	0	0	1	0	0	0	0	0	1	2	0	0	0	–
O=C1Nc2ccc(Cl)cc2C(c2ccccc2Cl)=NC1O (configuration not stated) [LORAZEPAM]	0	1	0	0	0	0	0	0	0	1	2	0	0	0	–
